Data published in patent US4132738A, “Preparation of 15-deoxy-16-hydroxyprostaglandins” (Miles Laboratories, Inc., priority 1978, dated 1979).

How the values were obtained:
[1] = test system: blood pressure in the hypertensive rat; assay: Effects on systolic blood pressure in the hypertensive rat; type: in vivo; parameters: key: 0: Not significant at any time interval; 1: Significant at one time interval; 2: Significant at two time intervals; details: 1 mg/kg intraperitoneal; 2, 4, 6 and 9 hours
Description: The acute anithypertensive activity of test compounds was determined in rats made hypertensive by the procedure of Grollman (Proc. Soc. Exper Biol. Med., 57: 102 [1944]). Female rats weighing between 60 and 100 g were anesthetized with ether, the right kidney approached through a flank retroperitoneal incision, decapsulated and tied with a figure-of-eight-ligature. The animals were left to recover and two weeks later were again anesthetized and the contralateral kidney removed. Four weeks after the second operation the rats were subjected to indirect blood pressure measurements and those showing systolic pressure values greater than 160 mmHg were selected for drug testing.
Blood pressure was measured in the tail with an inflatable occluding cuff placed at the base of the extremity and a pulse detector located distally. The cuff was inflated to approximately 300 mmHg and was slowly deflated until pulsations appeared, indicating the level of systolic pressure; diastolic pressure was not recorded by this procedure. All measurements were carried out in unanesthetized, unsedated animals maintained in a warm environment during the recording procedure and for at least 6 hours before. In all cases, three pressure readings were obtained in succession and mean values were calculated thereof.
Experiments were carried out in groups of five hypertensive rats in which systolic pressure was determined immediately before and 2, 4, 6 and 9 hours after intraperiotoneal administration of the test compound at a dose of 1 mg/kg. Drugs were diluted from stock solutions with phosphate buffer (Lee et. al., Prostaglandins, 29 [1973]), so as to inject this quantity in a volume of 1 ml/kg. Changes from control blood pressure values were calculated for each interval both in mmHg and in percent, and evaluated for significance by means of Wilcoxon's signed rank test (Wilcoxon, R. and Wilcox, R. A., "Some Rapid Approximate Statistical Procedures," Lederle Laboratories, Pearl River [1964]).

[2] = test system: gastric secretion in the rat; assay: Effects on gastric secretion in the rat; type: in vivo; details: for GAS value, carbinol versus methyl ester analogue: comparison in words
Description: A procedure based on that described by Lipman, W. (J. Pharm. Pharmacol., 21: 335 [1968]) was used to assess the influence of test compounds on gastric secretion. Rats of one sex weighing 150 to 200 g were randomly divided into groups of six animals each and fasted for 48 hours previous to the experiments, water being available ad libitum. The animals were anesthetized with ether, the abdomen opened through a midline incision, and the pylorus ligated. Test compounds were diluted from stock solution so as to administer a dose of 1.5 mg/kg in a volume equivalent to 1 ml/kg. Subcutaneous injections were applied immediately after surgery and again 2 hours later, so that a total dose of 3.0 mg/kg was administered. Dilutions were made with phosphate buffer (pH 7.38) as recommended by Lee et al. (Prostaglandins, 3: 29 [1973]) in order to insure adequate stability of drugs at the subcutaneous depot. Each compound was tested in one group of rats; an additional control group received only the vehicle.
Four hours after pyllric ligation the animals were killed with ether, the cardias ligated, and the stomachs removed. The volume of gastric secretion was measured and the contents centrifuged at 5000 rpm for 10 minutes. Total acid in the supernatant was titrated against a 0.1 N sodium hydroxide solution and the amount expressed in mEq.
Volume and total acid values of the treated group were compared with those of the controls […]. Antisecretory activity was scored according to the following scale: […]

guinea pig trachea = assay: Effects on the guinea pig trachea in vitro; type: cell-based; details: comparison in words
Description: A male guinea pig weighing 200-500 g was killed by a blow on the head. A 20 mm length of the trachea was dissected from the animal, transferred to a petri dish containing Krebs' solution (aerated with 95% O2 and 5% CO2 at 37° C.), and cut longitudinally opposite the tracheal muscle. The tissue was then cut transversely three quarters of the distance across, a second cut in the opposite direction (again three quarters of the distance across the tissue) was made and the procedure was continued for the whole tissue. The ends of the trachea were pulled to form a zig-zig shaped strip. The tracheal strip used in the experiment was approximately 30 mm when extended under 0.25-0.5 g load in the tissue bath. Cotton thread was tied to one end of the tissue, and linen thread to the other. It was attached via the linen thread to a glass hook in a 5 ml isolated tissue bath containing Krebs' solution (37° C., aerated with a mixture of 95% O2 and 5% CO2). The opposite end was attached via cotton to an isotonic Harvard transducer (Model 386 Heart/Smooth Muscle Transducer, Harvard Apparatus). The load on the transducer lever was small, usually 0.3 g, with a range of 0.25-0.5 g, and the magnification high, 80 fold using an appropriate twin-channel pen recorder. A minimum of thirty minutes was allowed before applying a test compound to the tissue. Test compounds were then applied (in volumes of 0.5 ml) at thirty minute intervals, being in contact with the tissue for five minutes followed by an overflow washout time of twenty seconds.
Prostaglandin E1, at a bath concentration of 0.1 mcg/ml, was then tested repeatedly on two such strips, obtained from two different animals, until two responses (the values of which are recorded) differing by no more than 25% occur. A test compound was then added to the same two strips at bath concentrations of 0.01, 0.1, 1.0, and 10.0 mcg/ml and the effects of the compound were recorded. After the test compound had been evaluated at the highest concentration, PGE1 was retested at 0.1 mcg/ml (and the value of the response recorded) to insure that the viability of the strips was retained during the experiment. The mean of the effects of the test compound on the two strips was then calculated for each concentration, and, biased on the resulting values, an activity value was assigned as follows: […]

## COC(=O)CCCCCC[C@H]1C(=O)C[C@@H](O)[C@@H]1/C=C/CC1(O)CC2CCCCC21 (stereo partly drawn) [TR 4808, Methyl 11α, 16RS-dihydroxy-17, 20-ethano-16, 18-methano-9-oxoprost-13E-en-1-oate]
[1]
  Blood Pressure Hypertensive Rat: activity value: 0

## CCCCC(C)(O)C/C=C/[C@H]1[C@H](O)CC(=O)[C@@H]1CCCCCCCO (stereo partly drawn) [TR 4698, 16-methyl-1,11α,16RS-trihydroxyprost-13E-en-9-one]
[2]
  GAS value, carbinol versus methyl ester analogue: the same
Guinea pig trachea
  Guinea pig trachea value, carbinol versus methyl ester analogue: the same
[1]
  Blood Pressure Hypertensive Rat: activity value: 1

## CCCC(C)C(O)C/C=C/[C@H]1[C@H](O)CC(=O)[C@@H]1CCCCCCCO (stereo partly drawn) [TR 4749, 1, 11α, 16RS-trihydroxy-17RS-methylprost-13E-en-9-one]
[2]
  GAS value, carbinol versus methyl ester analogue: lower
Guinea pig trachea
  Guinea pig trachea value, carbinol versus methyl ester analogue: lower
[1]
  Blood Pressure Hypertensive Rat: activity value: 0

## CC1CCCC(O)(C/C=C/[C@H]2[C@H](O)CC(=O)[C@@H]2CCCCCCCO)C1 (stereo partly drawn) [TR 4851, 16, 20-Methano-18RS-methyl-1, 11α, 16RS-trihydroxyprost-13E-en-9-one]
[1]
  Blood Pressure Hypertensive Rat: activity value: 0

## COC(=O)CCCCCC[C@H]1C(=O)C[C@@H](O)[C@@H]1/C=C/CC1(O)CCCCC1 [TR 4717, Methyl 11α, 16RS-dihydroxy-16, 20-methano-9-oxoprost-13E-en-1-oate]
[1]
  Blood Pressure Hypertensive Rat: activity value: 0

## CCCC(C)C(O)C/C=C/[C@H]1[C@H](O)CC(=O)[C@@H]1CCCCCCC(=O)OC (stereo partly drawn) [TR 4814, Methyl 11α, 16RS-dihydroxy-17-methyl-9-oxoprost-13E-oate, reference compound]
[1]
  Blood Pressure Hypertensive Rat: activity value: 1

## CCCC(C)(C)C(O)C/C=C/[C@H]1[C@H](O)CC(=O)[C@@H]1CCCCCCCO (single isomer, unassigned) [TR 4752, 1, 11α, 16R or S-trihydroxy-17-dimethylprost-13E-en-9-one]
[2]; result in words
  GAS activity: no GAS activity
[1]
  Blood Pressure Hypertensive Rat: activity value: 0

## COC(=O)CCCCCC[C@H]1C(=O)C[C@@H](O)[C@@H]1/C=C/[C@H]1CCCC[C@@H]1O [TR 4767, Methyl 15R, 20-cyclo-11α, 16-trans-dihydro-9-oxoprost-13E-en-1-oate]
[1]
  Blood Pressure Hypertensive Rat: activity value: 0

## O=C1C[C@@H](O)[C@H](/C=C/CC2(O)CC3CCCC32)[C@H]1CCCCCCCO (stereo partly drawn) [TR 4799, 16, 18-Methano-17, 20-methano-1, 11α, 16RS-trihydroxyprost-13E-en-9-one]
[1]
  Blood Pressure Hypertensive Rat: activity value: 0

## COC(=O)CCCCCC[C@H]1C(=O)C[C@@H](O)[C@@H]1/C=C/CC1(O)CC2CCC1C2 (stereo partly drawn) [TR 4883, Methyl 11α,16RS-dihydroxy-16,20-methano-17,20-methano-9-oxoprost-13E-en-1-oate]
[1]
  Blood Pressure Hypertensive Rat: activity value: 1

## COC(=O)CCCCCC[C@H]1C(=O)C[C@@H](O)[C@@H]1/C=C/CC1(O)CC2C=CCC21 (stereo partly drawn) [TR 4800, Methyl 11α, 16RS-dihydroxy-16, 18-methano-17, 20-methano-9-oxoprosta-13E, 19-dien-1-oate]
[1]
  Blood Pressure Hypertensive Rat: activity value: 0

## CCCCC(O)C/C=C/[C@H]1[C@H](O)CC(=O)[C@@H]1CCCCCCCO (stereo partly drawn) [TR 4706, 1,11α,16RS-trihydroxyprost-13E-en-9-one]
[2]
  GAS value, carbinol versus methyl ester analogue: the same
Guinea pig trachea
  Guinea pig trachea value, carbinol versus methyl ester analogue: the same
[1]
  Blood Pressure Hypertensive Rat: activity value: 0

## O=C1C[C@@H](O)[C@H](/C=C/CC2(O)CCCCC2)[C@H]1CCCCCCCO [TR 4703, 16, 20-Methano-1, 11α, 16-trihydroxyprost-13E-en-9-one]
[1]
  Blood Pressure Hypertensive Rat: activity value: 0
